The source of these data is patent US9359409B2, “Antimicrobial peptides, compositions comprising the same and uses thereof” (priority 2012, dated 2016).

One assay relates to Escherichia coli. The protocol:
(§1) The 5 designed and synthesized peptides of the invention, plus omiganan (peptide of the state of the art) were evaluated for their antimicrobial capacity in microdilution assays for determining the minimum inhibitory concentration (MIC). A first panel of 8 representative strains was analyzed in these assays, encompassing Gram positive and Gram negative bacteria. […] The lowest MIC values indicate a higher antimicrobial potency.
(§2) Subsequently, an analysis of a panel of clinical isolates including strains with different resistance mechanisms against conventional antibiotics was carried out, all of which are of clinical relevance. […] In Table 3 the results for a panel of Gram negative bacteria are shown, and in Table 4 for a panel of […] bacteria. In these tables the detected gene/s responsible for the resistance against antibiotics for each strain, are included.
(§3) Antimicrobial activity was analyzed by means of the determination of the MIC (minimum inhibitory concentration) by the microdilution technique. The technique was carried out in the standard fashion according to (CLSI M07-A9 Vol. 32 No 2. January 2012). The peptide concentration range used was from 0.5 μg/mL to 512 μg/mL in two-fold serial dilutions. The used medium was MH Difco broth supplemented with cations, at a final concentration of Ca^++20-25 mg/L and Mg^++10-12.5 mg/L. The working inoculum used corresponds to a 1/100 dilution of a bacterial suspension equivalent to 0.5 in the Mc Farland scale.

A further assay has as its system Klebsiella pneumoniae. Here is the method:
as §1, §2, §3

The next assay has as its system Staphylococcus cohnii. The protocol: as §1, §2, §3
A further assay relates to Staphylococcus warneri. Here is the method:
as §1, §2, §3

Another assay relates to Pseudomonas aeruginosa. The assay can be described thus: MIC by broth microdilution. In kind it is cell-based. The protocol:
as §1, §2, §3
Background: Dilution methods test growth across graded concentrations, often in twofold steps.

The next assay has as its system E. coli. It counts as cell-based. Here is the method:
(§4) In vitro sensitivity assay of aerobically growing bacteria, using the disc diffusion method was performed according to the standards in the M2 document of the CLSI (Clinical and Laboratory Standards Institute: Performance Standards for Antimicrobial Disk Susceptibility Tests.) using the non-amidated peptides
(§5) In brief, intermediate solutions (10×) of the antimicrobial non-amidated peptides were prepared by serial dilutions 1:2, 1:4 and 1:8 by two-fold dilutions. Then, one part of the solution of the antimicrobial peptide 10× was added to nine parts of melted bacteriological agar. The antibiotic solution was added for each dilution, in the melted agar and cooled to 45-50° C. in a water bath. Then, the agar-antibiotic mixture was placed in a Petri dish until a 3-4 mm depth was reached. The inoculum is prepared with a turbidity of 0.5 in the McFarland scale (approximately 1-2 10^8 CFU/ml). The final inoculum required for the agar dilution test is 10^4 colony forming units (CFU) per “spot” having 5-8 mm in diameter. The inoculated plates must be incubated upside down at 35° C. for a period of 16-20 hs. MIC was recorded as the value of the lower dilution completely inhibiting bacterial development, without considering the development of a single colony or a slight film caused by the inoculum deposit. The final point in these cases will correspond to the concentration at which there is more than 80% reduction in growth as compared with the control.

A further assay concerns K. pneumoniae. In kind it is cell-based. The protocol: as §4, §5
The next assay has as its system P. aeruginosa. It counts as cell-based. The protocol:
as §4, §5

For the next assay, the system named is S. aureus. It counts as cell-based. Here is the method:
as §4, §5

A further assay concerns S. cohnii. In kind it is cell-based. Here is the method: as §4, §5
The subject of a further assay is S. warnerii. In kind it is cell-based. The protocol:
as §4, §5

What is called MIC is the lowest concentration that inhibits growth of the organism.

Ends that are not written are not given here. Peptide text beside a SMILES is read from it. Bounds are passed on as bounds.

As to `CC[C@H](C)[C@H](NC(=O)[C@H](CCCCN)NC(=O)[C@H](CCCNC(=N)N)NC(=O)[C@H](CC(N)=O)NC(=O)CNC(=O)[C@H](CCCNC(=N)N)NC(=O)[C@H](Cc1ccccc1)NC(=O)[C@@H](NC(=O)[C@H](CS)NC(=O)[C@H](Cc1c[nH]cn1)NC(=O)[C@H](CC(C)C)NC(=O)[C@@H]1CCCN1C(=O)[C@H](CCC(N)=O)NC(=O)[C@@H]1CCCN1C(=O)[C@@H](NC(=O)[C@H](CC(N)=O)NC(=O)[C@@H]1CCCN1C(=O)[C@H](CC(C)C)NC(=O)CNC(=O)[C@@H](NC(=O)CNC(=O)[C@H](CO)NC(=O)[C@H](CC(C)C)NC(=O)[C@H](CC(C)C)NC(=O)[C@H](CC(=O)O)NC(=O)[C@H](CS)NC(=O)[C@@H](NC(=O)[C@@H](N)[C@@H](C)O)[C@@H](C)O)C(C)C)C(C)C)C(C)C)C(=O)N[C@@H](CCCCN)C(=O)N[C@@H](Cc1c[nH]c2ccccc12)C(N)=O` [peptide 4] (H-TTCDLLSGVGLPNVPQPLHCVFRGNRKIKW-NH2), the minimal inhibitory concentration (MIC) with Escherichia coli, in the assay with Klebsiella pneumoniae, against Staphylococcus cohnii, in the assay on Staphylococcus warneri and with Pseudomonas aeruginosa was >256 µg/mL each time. Also, the “MIC in agar dilution” value against E. coli, against K. pneumoniae, in the assay with P. aeruginosa, against S. aureus, with S. cohnii and against S. warnerii was >128 µg/mL each time.
As for “FGKEKKAWWRRRKWLK-NH2 [peptide 3, FGKEKKAWWRRRKWLK]”, the MIC is 64 µg/mL in the assay on Escherichia coli; 128 µg/mL with Klebsiella pneumoniae; 4 µg/mL with Staphylococcus cohnii; 8 µg/mL against Staphylococcus warneri; 128 µg/mL against Pseudomonas aeruginosa. Besides, the “MIC in agar dilution” value in the assay with E. coli is >128 µg/mL; with K. pneumoniae, >128 µg/mL; against P. aeruginosa, >128 µg/mL; against S. aureus, >128 µg/mL; against S. cohnii, 32 µg/mL; in the assay on S. warnerii it was 32 µg/mL.
